Among the data in ChEMBL document CHEMBL1138469, “Structural basis for inhibitor specificity in human poly(ADP-ribose) polymerase-3” (J Med Chem, 2009) are Kd, IC50 and Activity values, retold here.

Active and inactive are the calls of the source. No cut-off for these calls is given here.

Assay [1] deals with T1, Protein mono-ADP-ribosyltransferase PARP3 (Homo sapiens, UniProt Q9Y6F1).
T1 sequence (Q9Y6F1 whole entry): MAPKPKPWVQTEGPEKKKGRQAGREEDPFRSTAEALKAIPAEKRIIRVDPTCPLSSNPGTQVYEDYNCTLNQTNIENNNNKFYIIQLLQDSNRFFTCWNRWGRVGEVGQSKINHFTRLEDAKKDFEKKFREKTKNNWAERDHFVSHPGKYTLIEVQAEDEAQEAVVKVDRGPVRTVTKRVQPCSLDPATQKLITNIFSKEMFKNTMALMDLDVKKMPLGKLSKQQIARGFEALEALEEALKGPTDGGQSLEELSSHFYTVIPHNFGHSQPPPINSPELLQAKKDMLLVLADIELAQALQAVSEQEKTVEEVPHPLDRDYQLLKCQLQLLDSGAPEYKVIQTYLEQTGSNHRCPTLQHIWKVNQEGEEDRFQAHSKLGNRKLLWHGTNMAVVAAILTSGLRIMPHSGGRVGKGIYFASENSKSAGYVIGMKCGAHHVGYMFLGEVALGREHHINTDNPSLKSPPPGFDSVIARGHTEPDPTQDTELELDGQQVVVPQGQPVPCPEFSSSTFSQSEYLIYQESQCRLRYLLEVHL
In words: Binding affinity to human PARP3 PARP domain by isothermal titration […].

For assay [2], the target named is T2, Poly [ADP-ribose] polymerase 1 (Homo sapiens, UniProt P09874). Description: Inhibition of human PARP1.
Assay [3] deals with T3, Protein mono-ADP-ribosyltransferase PARP3 (Homo sapiens) (UniProt Q9Y6F1).
T3 sequence (whole entry): T1 sequence (Q9Y6F1 whole entry)
Description: Inhibition of human PARP3 auto-ADP ribosylation by Western blotting.

Assay [4] concerns the target T2, Poly [ADP-ribose] polymerase 1.
Description: Binding affinity to human PARP1 by isothermal titration colorimetry

T2 sequence (P09874 whole entry): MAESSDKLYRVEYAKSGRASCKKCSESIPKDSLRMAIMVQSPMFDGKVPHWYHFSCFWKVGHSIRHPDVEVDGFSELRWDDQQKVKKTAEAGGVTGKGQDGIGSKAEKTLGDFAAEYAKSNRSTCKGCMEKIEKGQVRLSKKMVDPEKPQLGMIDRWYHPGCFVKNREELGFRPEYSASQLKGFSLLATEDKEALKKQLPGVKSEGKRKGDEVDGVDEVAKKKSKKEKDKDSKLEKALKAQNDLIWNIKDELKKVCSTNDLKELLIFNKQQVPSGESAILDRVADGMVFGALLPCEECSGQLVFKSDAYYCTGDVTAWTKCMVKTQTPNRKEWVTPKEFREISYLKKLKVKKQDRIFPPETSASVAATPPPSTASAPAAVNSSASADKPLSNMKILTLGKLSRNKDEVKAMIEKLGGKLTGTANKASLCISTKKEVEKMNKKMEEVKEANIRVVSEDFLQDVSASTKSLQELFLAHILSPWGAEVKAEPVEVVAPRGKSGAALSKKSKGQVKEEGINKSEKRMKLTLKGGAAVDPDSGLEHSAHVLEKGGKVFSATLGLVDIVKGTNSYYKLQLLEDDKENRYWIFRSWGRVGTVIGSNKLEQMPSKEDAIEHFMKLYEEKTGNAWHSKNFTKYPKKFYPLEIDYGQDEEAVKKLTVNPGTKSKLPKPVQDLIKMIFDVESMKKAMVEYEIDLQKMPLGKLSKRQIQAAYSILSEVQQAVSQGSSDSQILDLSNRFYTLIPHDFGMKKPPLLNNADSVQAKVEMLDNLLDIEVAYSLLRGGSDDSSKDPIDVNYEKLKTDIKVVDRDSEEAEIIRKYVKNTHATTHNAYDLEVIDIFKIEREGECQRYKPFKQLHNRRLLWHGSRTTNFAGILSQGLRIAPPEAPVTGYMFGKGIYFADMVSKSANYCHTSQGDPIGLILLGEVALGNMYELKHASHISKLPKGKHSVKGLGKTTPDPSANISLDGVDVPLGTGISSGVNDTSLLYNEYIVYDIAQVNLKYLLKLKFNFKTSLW

In turn, `Nc1cccc(C(=O)O)c1` [3-AMINOBENZOIC ACID] had a Kd in assay [1] greater than 2000 nM.

In turn, `O=C(c1cc(Cc2n[nH]c(=O)c3ccccc23)ccc1F)N1CCCNCC1` displayed an IC50 in assay [2] of 3.4 nM. Moreover, the outcome in assay [3] was Active. Further, binding in assay [4] was put at a Kd of 19 nM.
